The values that follow come from patent US3984390A, “Novel process for producing phleomycin group antibiotics” (Zaidan Hojin Biseibutsu Kagaku Kenkyu Kai, priority 1972, dated 1976).

For data set [1], the system named is Mycobacterium smegmatis 607. As to the kind of experiment: Antimicrobial potency, cylinder agar plate method, Bleomycin A2 (copper-free base) assumed as 1000 U/mg. The format is cell-based. The settings on record: for Antimicrobial potency: Mycobacterium smegmatis 607. The protocol: 1. Antimicrobial potency was assayed by a cylinder agar plate method on the basis of Bleomycin A2 (copper-free base) assumed as 1000 U/mg, using Mycobacterium smegmatis 607 as test organism.
^(1) Assayed by a cylinder-agar plate method using Mycobacterium
smegmatis 607 as test organism, the potency of bleomycin A2
(copper-free base) being assumed as 1000 unit/mg.
The resulting compound has 0.65 of Rf value of the Silica gel thin layer chromatograph (CH3 OH: 10 %-CH3 COONH4 : 10 %-NH4 OH = 10 : 9 : 1) and 0.53 of Rf value of the Avicel thin layer chromatography (n-C3 H7 OH : pyridine : CH3 COOH : H2 O = 15 : 10 : 3 : 12) which are same with those of the 3-morpholinopropylaminobleomycin. The antimicrobial activity to Mycobacterium smegmatis 607 by the cylinder-agar plate method (the standard copper-free bleomycin A2 free base 1,000 U/mg) was 605 U/mg.

Data set [2] has as its system Ehrlich ascites carcinoma. The data set can be described thus: Antitumor activity and toxicity in ICR-SLC mouse inoculated with Ehrlich ascites carcinoma, i.p. for ten consecutive days. The format is in vivo. To be noted: for Chemotherapeutic index: Table 5, ten consecutive days into peritoneal cavity, evaluated 50 days after beginning. The protocol:
The phleomycin was administered for ten consecutive days into peritoneal cavity of a ICR-SLC mouse, into which Ehrlich ascites carcinoma had been inoculated. Fifty days after the beginning of the experiment, measurements were made for (1) the number of dead mouse owing to toxicity, (2) the number of survived mouse, (3) mean survival period in 50 days, and (4) the ratio of mean survival period to that of reference mouse multiplied by 100. The chemotherapeutic index was calculated from the values of ED50 (50 % effective dose) and LD50 (50 % lethal dose) which were obtained as given below.
ED50 value: The maximum dose level within the range of logevity ratio of 100 to 200.
LD50 value: Calculated according to Behrens-Karber method from the data of (1) and (2).
^(2) A bleomycin was administered for ten consecutive days into
peritoneal cavity of a ICR-SLC mouse, where Ehrlich ascites carcinoma had
been inoculated, and 50 days after the beginning of experiment the […]

Where [3] appears, read: phleomycins of Table 1, Bleomycin A2 (copper-free base) = 1000 U/mg.
Where [4] appears, read: bleomycins of Table 5, bleomycin A2 (copper-free base) = 1000 unit/mg.
The mark [5] stands for this setting: 0.19 mg/kg/day for 10 days i.p.
Where [6] appears, read: 0.39 mg/kg/day for 10 days i.p.
Where [7] appears, read: 0.78 mg/kg/day for 10 days i.p.
Where [8] appears, read: 1.56 mg/kg/day for 10 days i.p.
[9] abbreviates: 3.12 mg/kg/day for 10 days i.p.
The mark [10] stands for this setting: 6.25 mg/kg/day for 10 days i.p.
Setting [11] is: 12.5 mg/kg/day for 10 days i.p.
[12] abbreviates: 25.0 mg/kg/day for 10 days i.p.

In data set [1] (setting [3]), 2-(Imidazol-4-yl)ethylaminophleomycin displayed an Antimicrobial potency of 678 unit/mg.
2-N,N-Diethylaminoethylaminophleomycin showed an Antimicrobial potency in data set [1] (setting [3]) of 882 unit/mg.
2-N,N-Dimethylaminoethylaminobleomycin yielded an Antimicrobial potency in data set [1] (setting [4]) of 897 Unit/mg. Also, the Chemotherapeutic index in data set [2] is given as 7.8.
Consider 2-N,N-Dimethylaminoethylaminophleomycin, for which the Antimicrobial potency in data set [1] (setting [3]) was determined as 718 unit/mg.
On the same count and under the same terms, as for “3-(3-Morpholinopropylamino)propylaminophleomycin”, the figure is 961 unit/mg.
“3-(3-N,N-Dimethylaminopropylamino)propylaminobleomycin” came in with an Antimicrobial potency in data set [1] (setting [4]) of 1670 Unit/mg. This substance showed a Chemotherapeutic index in data set [2] of 54.
Taken in the same sequence, the figures for “3-(3-N-Benzylaminopropylamino)propylaminobleomycin” were 6000 Unit/mg and 24.0.
In turn, “3-(3-N-Benzylaminopropylamino)propylaminophleomycin” showed an Antimicrobial potency in data set [1] (setting [3]) of 6710 unit/mg.
In turn, “3-(3-N-Cyclohexylaminopropylamino)propylaminobleomycin” showed an Antimicrobial potency in data set [1] (setting [4]) of 12335 Unit/mg. The substance further yielded a Chemotherapeutic index in data set [2] of 39.5.
The substance “3-(3-N-Cyclohexylaminopropylamino)propylaminophleomycin” yielded an Antimicrobial potency in data set [1] (setting [3]) of 8570 unit/mg.
“3-(3-N-n-Butylaminopropylamino)propylaminobleomycin” gave an Antimicrobial potency in data set [1] (setting [4]) of 5840 Unit/mg. In data set [2], the Chemotherapeutic index was 59.2.
In data set [1] (setting [3]), “3-(3-N-n-Butylaminopropylamino)propylaminophleomycin” gave an Antimicrobial potency of 4672 unit/mg.
Consider “3-(3-Piperidinopropylamino)propylaminobleomycin”, for which the Antimicrobial potency in data set [1] (setting [4]) is reported as 3580 Unit/mg. The Chemotherapeutic index in data set [2] stood at 16.8.
In data set [1] (setting [3]), “3-(3-Piperidinopropylamino)propylaminophleomycin” came in with an Antimicrobial potency of 2864 unit/mg.
In data set [1] (setting [4]), “3-(3-Pyrrolidinopropylamino)propylaminobleomycin” yielded an Antimicrobial potency of 3286 Unit/mg. The substance also came in with a Chemotherapeutic index in data set [2] of 26.4.
“3-(3-Pyrrolidinopropylamino)propylaminophleomycin”: the Antimicrobial potency in data set [1] (setting [3]) stood at 2051 unit/mg.
The same measure, in the same setting: as for “3-(N,N,N-Trimethylamino)propylaminophleomycin chloride”, the figure is 506 unit/mg; as for “3-(N,N-Dimethylaminopropylamino)propylaminophleomycin”, 1336 unit/mg; as for 3-Amidinopropylaminophleomycin, 2500 unit/mg.
The same measure, in the same setting: the same measure for 3-Guanidinopropylaminophleomycin: 2300 unit/mg.
On to 3-Morpholinopropylaminobleomycin, for which the “Antimicrobial activity to Mycobacterium smegmatis 607” value in data set [1] (Referential Example, standard copper-free bleomycin A2 free base 1,000 U/mg) was 605 U/mg. In addition, the Antimicrobial potency in data set [1] (setting [4]) worked out at 592 Unit/mg. For the same substance, the “Average longevity (mean survival period in 50 days)” value is recorded as 11.8 in data set [2] (setting [5]); 11.8 in data set [2] (setting [6]); 33.0 in data set [2] (setting [7]); 36.6 in data set [2] (setting [8]); 45.2 in data set [2] (setting [9]); 34.2 in data set [2] (setting [10]). The figures for the “Average longevity (mean survival period in 50 days)” value in data set [2] (setting [11]) and in data set [2] (setting [12]) were 30.4 and 12.4, respectively. The “Longevity ratio (mean survival period to that of reference mouse multiplied by 100)” value in data set [2] (setting [5]) is recorded as 97; in data set [2] (setting [6]), 97; in data set [2] (setting [7]) it was 270; in data set [2] (setting [8]), 300; in data set [2] (setting [9]), 370; in data set [2] (setting [10]), 280. The “Longevity ratio (mean survival period to that of reference mouse multiplied by 100)” value in data set [2] (setting [11]) came out at 249; in data set [2] (setting [12]), 102. Besides, the “Toxicity, number dead/total number” value was 0/5 in data set [2] (setting [5]); 0/5 in data set [2] (setting [6]); 0/5 in data set [2] (setting [7]); 0/5 in data set [2] (setting [8]); 0/5 in data set [2] (setting [9]); 2/5 in data set [2] (setting [10]). In addition, the “Toxicity, number dead/total number” value in data set [2] (setting [11]) is given as 4/5; in data set [2] (setting [12]), 5/5. The “Viability (after 50 days), number survived/total number” value is 0/5 in data set [2] (setting [5]); 0/5 in data set [2] (setting [6]); 2/5 in data set [2] (setting [7]); 3/5 in data set [2] (setting [8]); 4/5 in data set [2] (setting [9]); 3/5 in data set [2] (setting [10]). Further, the results for the “Viability (after 50 days), number survived/total number” value in data set [2] (setting [11]) and in data set [2] (setting [12]) were 1/5 and 0/5, respectively. In data set [2], this substance returned a Chemotherapeutic index of 21.7. Besides, the “Chemotherapeutic index (LD50/ED50)” value in data set [2] (Tables 2 to 4, i.p., for 10 days, 72000 min) worked out at 12.1. Moreover, the “LD50 (50 % lethal dose)” value in data set [2] (i.p., for 10 days, Behrens-Karber method, 72000 min) came out at 9.4 mg/kg/day. Further, the “ED50 (50 % effective dose)” value in data set [2] (i.p., for 10 days, maximum dose level within the range of longevity ratio of 100 to 200, 72000 min) was 0.78 mg/kg/day.
Consider 3-N,N-Diethylaminopropylaminophleomycin, for which the Antimicrobial potency in data set [1] (setting [3]) came to 829 unit/mg.
Same read-out and setting: as for “3-N,N-Dimethylaminopropylaminophleomycin”, the figure is 648 unit/mg.
On the same count and under the same terms, the same measure for “3-N-(1-Phenylethyl)aminopropylaminophleomycin”: 4030 unit/mg; for “3-N-(3,3-Dichloropropyl)aminopropylaminophleomycin”: 3120 unit/mg.
In the case of “3-N-(3-Hydroxypropyl)aminopropylaminophleomycin”, in data set [1] (setting [3]), the Antimicrobial potency was found to be 845 unit/mg.
On the same count and under the same terms, the same measure for 3-N-Benzylaminopropylaminophleomycin: 3373 unit/mg; for “3-N-Cyclohexylaminopropylaminophleomycin”: 4284 unit/mg; for 3-N-Methylaminopropylaminophleomycin: 688 unit/mg.
The same measure, in the same setting: the same measure for 3-N-Propenylaminopropylaminophleomycin: 2100 unit/mg; for 3-N-n-Butylaminopropylaminophleomycin: 3535 unit/mg.
Turning to “3-N-tert-Butylaminopropylaminophleomycin”, the Antimicrobial potency in data set [1] (setting [3]) was determined as 3520 unit/mg.
In turn, 3-Piperazinopropylaminophleomycin gave an Antimicrobial potency in data set [1] (setting [3]) of 581 unit/mg.
As for 3-Piperidinopropylaminophleomycin, the Antimicrobial potency in data set [1] (setting [3]) was 1006 unit/mg.
Same read-out and setting: as for 3-Pyrrolidinopropylaminophleomycin, the figure is 853 unit/mg; as for “3-[3-N-(1-phenylethyl)aminopropylamino]propylaminophleomycin”, 7208 unit/mg.
